From ChEMBL document CHEMBL3751764, “Synthesis and in vitro antiproliferative activity of novel pyrazolo[3,4-d]pyrimidine derivatives” (Medchemcomm, 2015)

Legend:
Format in all cases: functional
[1] = Cytotoxicity against human Hs 578T cells assessed as cell growth at 10 uM after 72 hrs by SRB assay relative to control; conditions: read-out: Activity
[2] = tested on: SN12C; test: Cytotoxicity against human SN12C cells assessed as cell growth at 10 uM after 72 hrs by SRB assay relative to control; conditions: read-out: Activity
[3] = Cytotoxicity against human SF295 cells assessed as cell growth at 10 uM after 72 hrs by SRB assay relative to control; conditions: SF-295, 72 h, read-out: Activity
[4] = Cytotoxicity against human HCC2998 cells assessed as cell growth at 10 uM after 72 hrs by SRB assay relative to control; conditions: HCC 2998, 72 h, read-out: Activity
[5] = Cytotoxicity against human SNB75 cells assessed as cell growth at 10 uM after 72 hrs by SRB assay relative to control; conditions: SNB-75, 72 h, read-out: Activity
[6] = Cytotoxicity against human IGROV1 cells assessed as cell growth at 10 uM after 72 hrs by SRB assay relative to control; conditions: IGROV-1, 72 h, read-out: Activity
[7] = tested on: MDA-MB-435; test: Cytotoxicity against human MDA-MB-435 cells assessed as cell growth at 10 uM after 72 hrs by SRB assay relative to control; conditions: MDA-MB-435, 72 h, read-out: Activity
[8] = Cytotoxicity against human DU145 cells assessed as cell growth at 10 uM after 72 hrs by SRB assay relative to control; conditions: DU-145, 72 h, read-out: Activity
[9] = tested on: U-251; test: Cytotoxicity against human U251 cells assessed as cell growth at 10 uM after 72 hrs by SRB assay relative to control; conditions: U-251, 72 h, read-out: Activity
[10] = tested on: T47D; test: Cytotoxicity against human T47D cells assessed as cell growth at 10 uM after 72 hrs by SRB assay relative to control; conditions: read-out: Activity
[11] = Cytotoxicity against human HCT15 cells assessed as cell growth at 10 uM after 72 hrs by SRB assay relative to control; conditions: HCT-15, 72 h, read-out: Activity
[12] = Cytotoxicity against human MOLT4 cells assessed as cell growth at 10 uM after 72 hrs by SRB assay relative to control; conditions: MOLT-4, 72 h, read-out: Activity
[13] = Cytotoxicity against human SF268 cells assessed as cell growth at 10 uM after 72 hrs by SRB assay relative to control; conditions: SF-268, 72 h, read-out: Activity
[14] = Cytotoxicity against human COLO205 cells assessed as cell growth at 10 uM after 72 hrs by SRB assay relative to control; conditions: COLO 205, 72 h, read-out: Activity
[15] = tested on: MDA-MB-231; test: Cytotoxicity against human MDA-MB-231 cells assessed as cell growth at 10 uM after 72 hrs by SRB assay relative to control; conditions: MDA-MB-231, 72 h, read-out: Activity
[16] = tested on: ACHN; test: Cytotoxicity against human ACHN cells assessed as cell growth at 10 uM after 72 hrs by SRB assay relative to control; conditions: read-out: Activity
[17] = tested on: MDA-MB-468; test: Cytotoxicity against human MDA-MB-468 cells assessed as cell growth at 10 uM after 72 hrs by SRB assay relative to control; conditions: MDA-MB-468, 72 h, read-out: Activity
[18] = Cytotoxicity against human HOP92 cells assessed as cell growth at 10 uM after 72 hrs by SRB assay relative to control; conditions: HOP-92, 72 h, read-out: Activity
[19] = tested on: 786-0; test: Cytotoxicity against human 786-0 cells assessed as cell growth at 10 uM after 72 hrs by SRB assay relative to control; conditions: 786-0, 72 h, read-out: Activity
[20] = Cytotoxicity against human SKOV3 cells assessed as cell growth at 10 uM after 72 hrs by SRB assay relative to control; conditions: SK-OV-3, 72 h, read-out: Activity
[21] = Cytotoxicity against human OVCAR8 cells assessed as cell growth at 10 uM after 72 hrs by SRB assay relative to control; conditions: OVCAR-8, 72 h, read-out: Activity
[22] = Cytotoxicity against human OVCAR4 cells assessed as cell growth at 10 uM after 72 hrs by SRB assay relative to control; conditions: OVCAR-4, 72 h, read-out: Activity
[23] = tested on: NCI-H460; test: Cytotoxicity against human NCI-H460 cells assessed as cell growth at 10 uM after 72 hrs by SRB assay relative to control; conditions: NCI-H460, 72 h, read-out: Activity
[24] = Cytotoxicity against human SW620 cells assessed as cell growth at 10 uM after 72 hrs by SRB assay relative to control; conditions: SW-620, 72 h, read-out: Activity
[25] = Cytotoxicity against human OVCAR3 cells assessed as cell growth at 10 uM after 72 hrs by SRB assay relative to control; conditions: OVCAR-3, 72 h, read-out: Activity
[26] = tested on: Malme-3M; test: Cytotoxicity against human MALME-3M cells assessed as cell growth at 10 uM after 72 hrs by SRB assay relative to control; conditions: read-out: Activity
[27] = tested on: SK-MEL-28; test: Cytotoxicity against human SK-MEL-28 cells assessed as cell growth at 10 uM after 72 hrs by SRB assay relative to control; conditions: SK-MEL-28, 72 h, read-out: Activity
[28] = tested on: MCF7; test: Cytotoxicity against human MCF7 cells assessed as cell growth at 10 uM after 72 hrs by SRB assay relative to control; conditions: MCF7, 72 h, read-out: Activity
[29] = Cytotoxicity against human TK10 cells assessed as cell growth at 10 uM after 72 hrs by SRB assay relative to control; conditions: TK-10, 72 h, read-out: Activity
[30] = tested on: M14; test: Cytotoxicity against human M14 cells assessed as cell growth at 10 uM after 72 hrs by SRB assay relative to control; conditions: M14, 72 h, read-out: Activity
[31] = tested on: A498; test: Cytotoxicity against human A498 cells assessed as cell growth at 10 uM after 72 hrs by SRB assay relative to control; conditions: A498, 72 h, read-out: Activity
[32] = tested on: SR; test: Cytotoxicity against human SR cells assessed as cell growth at 10 uM after 72 hrs by SRB assay relative to control; conditions: read-out: Activity
[33] = tested on: SK-MEL-2; test: Cytotoxicity against human SK-MEL-2 cells assessed as cell growth at 10 uM after 72 hrs by SRB assay relative to control; conditions: SK-MEL-2, 72 h, read-out: Activity
[34] = Cytotoxicity against human Caki1 cells assessed as cell growth at 10 uM after 72 hrs by SRB assay relative to control; conditions: CAKI-1, 72 h, read-out: Activity
[35] = Cytotoxicity against human UO31 cells assessed as cell growth at 10 uM after 72 hrs by SRB assay relative to control; conditions: UO-31, 72 h, read-out: Activity
[36] = tested on: K562; test: Cytotoxicity against human K562 cells assessed as cell growth at 10 uM after 72 hrs by SRB assay relative to control; conditions: K562, 72 h, read-out: Activity

Structure (SMILES) | growth at 10 µM [1] [%] | growth at 10 µM [3] [%] | growth at 10 µM [5] [%] | growth at 10 µM [6] [%] | growth at 10 µM [7] [%] | growth at 10 µM [8] [%] | growth at 10 µM [9] [%] | growth at 10 µM [10] [%] | growth at 10 µM [11] [%] | growth at 10 µM [12] [%] | growth at 10 µM [13] [%] | growth at 10 µM [14] [%] | growth at 10 µM [16] [%] | growth at 10 µM [17] [%] | growth at 10 µM [18] [%] | growth at 10 µM [19] [%] | growth at 10 µM [20] [%] | growth at 10 µM [21] [%] | growth at 10 µM [22] [%] | growth at 10 µM [23] [%] | other results
Cc1ccc2nc(Nc3ncnc4c3cnn4-c3ccccc3)sc2c1 | 120 | 99.8 | 107 | 99.6 | 91.9 | 103 | 103 | 108 | 97.8 | 102 | 114 | 110 | 107 | 80.3 | 97.5 | 103 | 112 | 107 | 104 | 98.4 | growth at 10 µM [2]: 97.5%; growth at 10 µM [4]: 106%; growth at 10 µM [15]: 102%; growth at 10 µM [24]: 100%; growth at 10 µM [25]: 108%; growth at 10 µM [26]: 87%; growth at 10 µM [27]: 95.3%; growth at 10 µM [28]: 97.2%; growth at 10 µM [29]: 118%; growth at 10 µM [30]: 107%; growth at 10 µM [31]: 66.4%; growth at 10 µM [32]: 44.8%; growth at 10 µM [33]: 109%; growth at 10 µM [34]: 103%; growth at 10 µM [35]: 91.7%; growth at 10 µM [36]: 102%
Clc1ccc(-n2ncc3c(Nc4ccc(OCc5ccccc5)cc4)ncnc32)cc1 | 96.6 | 97.8 | 86.4 | 102 | 83.2 | 100 | 95 | 82.5 | 87.2 | 89.6 | 99.7 | 91.2 | 98.6 | 91.5 | 97.8 | 103 | 99.7 | 98 | 80.6 | 93.1 | growth at 10 µM [4]: 98%; growth at 10 µM [24]: 101%; growth at 10 µM [25]: 102%; growth at 10 µM [26]: 85.1%; growth at 10 µM [27]: 90.4%; growth at 10 µM [28]: 95.9%; growth at 10 µM [29]: 92.1%; growth at 10 µM [30]: 93.6%; growth at 10 µM [31]: 85.2%; growth at 10 µM [32]: 83.3%; growth at 10 µM [34]: 93.7%; growth at 10 µM [35]: 83.6%; growth at 10 µM [36]: 87.3%
O=C(NC1CCCCC1)c1ccc(Nc2ncnc3c2cnn3-c2ccccc2)cc1 | 0.22 | 73.4 | -20.4 | 71.1 | 81.2 | 54.6 | 40.2 | 76.8 | 66.6 | 89.5 | 36.9 | 65.4 | 54.3 | 76.1 | 37.7 | 72.1 | 54 | 21.6 | 30.3 | 42.2 | growth at 10 µM [2]: 19%; growth at 10 µM [15]: 8.76%; growth at 10 µM [24]: 72.9%; growth at 10 µM [25]: 87.4%; growth at 10 µM [26]: 2.93%; growth at 10 µM [27]: 62.2%; growth at 10 µM [28]: 82.8%; growth at 10 µM [29]: 51%; growth at 10 µM [30]: 69.1%; growth at 10 µM [31]: 50.4%; growth at 10 µM [32]: 67.5%; growth at 10 µM [33]: 79.1%; growth at 10 µM [34]: 62.3%; growth at 10 µM [35]: 57.7%; growth at 10 µM [36]: 73.2%
c1ccc(COc2ccc(Nc3ncnc4c3cnn4-c3ccccc3)cc2)cc1 | 109 | 107 | 102 | 100 | 90.1 | 104 | 106 | 100 | 72.4 | 93.1 | 108 | 107 | 104 | 93.1 | 98.8 | 100 | 108 | 113 | 91.3 | 93.7 | growth at 10 µM [2]: 97.4%; growth at 10 µM [4]: 108%; growth at 10 µM [15]: 101%; growth at 10 µM [24]: 98.7%; growth at 10 µM [25]: 113%; growth at 10 µM [26]: 92.8%; growth at 10 µM [27]: 96%; growth at 10 µM [28]: 100%; growth at 10 µM [29]: 111%; growth at 10 µM [30]: 101%; growth at 10 µM [31]: 77.9%; growth at 10 µM [32]: 92%; growth at 10 µM [33]: 115%; growth at 10 µM [34]: 99.1%; growth at 10 µM [35]: 79.6%; growth at 10 µM [36]: 90.3%
O=c1sc2cc(Nc3ncnc4c3cnn4-c3ccccc3)ccc2n1Cc1ccc(Cl)cc1 | 81.1 | 87.2 | 88.3 | 81.8 | 84.2 | 94.5 | 96.6 | 62.3 | 86.5 | 58.6 | 85.6 | 92.7 | 74.6 | 65.9 | 64.4 | 93.7 | 101 | 87.9 | 87 | 83.5 | growth at 10 µM [2]: 75%; growth at 10 µM [15]: 57.7%; growth at 10 µM [24]: 84.4%; growth at 10 µM [25]: 86.6%; growth at 10 µM [26]: 86.4%; growth at 10 µM [27]: 90.1%; growth at 10 µM [28]: 85.3%; growth at 10 µM [29]: 105%; growth at 10 µM [30]: 82.8%; growth at 10 µM [31]: 59%; growth at 10 µM [32]: 80.6%; growth at 10 µM [33]: 88%; growth at 10 µM [34]: 71.6%; growth at 10 µM [35]: 50.7%; growth at 10 µM [36]: 49.6%
